From patent US11286263B2, “Macrocyclic fluorine substituted indole derivatives” (The Broad Institute, Inc., priority 2017, dated 2022)

What follows are molecules tested against BCL-2 (Homo sapiens (Human), UniProt P10415) (assay: Protein-protein interaction assay BCL-2/Bad BH3 peptide (BCL-2 assay), TR-FRET). Conditions: BCL-2/Bad BH3 peptide TR-FRET; median.
Assay type: binding
Method: Assay 3 Protein-Protein Interaction assay: BCL-2/Bad BH3 Peptide (BCL-2 Assay)
The dose-dependent inhibition by the compounds described in this invention of the interaction between BCL-2 and the BH3 domain of Bad (both human) was determined using a steady state binding competition assay with time-resolved fluorescence energy transfer (TR-FRET) readout. For that purpose BCL-2 (amino acids 1-211, C-terminal fused to a hexahistidine (6× His) tag (SEQ ID 5) and a synthetic Bad BH3-derived peptide of sequence Biotin-PEG2-PEG2-NLWAAQRYGRELRR-Nle-SDEFVDSFKK-amide (SEQ ID 4) served as protein receptor and tracer ligand respectively. The recombinant BCL-2 protein (expressed in E. coli) was purchased from BPS Bioscience (San Diego, Calif., USA). The Bad BH3-derived peptide can be obtained from e.g. Biosyntan (Berlin, Germany).
In the assay 11 different concentrations of each compound (0.1 nM, 0.33 nM, 1.1 nM, 3.8 nM, 13 nM, 44 nM, 0.15 μM, 0.51 μM, 1.7 μM, 5.9 μM and 20 μM) were typically measured as duplicates in the same microtiter plate. For that, 100-fold concentrated DMSO solutions were prepared by serial dilutions (1:3.4) of a 2 mM stock solution in a clear, 384-well microtiter plate (Greiner Bio-One, Frickenhausen, Germany). From there, 50 nl were transferred in a dark test plate (Greiner Bio-One, Frickenhausen, Germany). The assay was initiated by addition of 2 μl of a 2,5-fold concentrated His-BCL-2 solution (usually for a 1 nM end concentration in 5 μl reaction volume) in aqueous assay buffer [50 mM Tris/HCl pH 7, 100 mM sodium chloride (NaCl), 50 mM potassium fluoride (KF), 0.005% Tween-20, 2 mM DTT, 0.1% bovine gamma globulin (BGG)] to the compounds in the assay plate. This was followed by a 10-minute incubation step at 22° C. for pre-equilibration of the putative complex between His-BCL-2 and the compounds. After that, 3 μl of a 1.67-fold concentrated solution (in assay buffer) consisting of Bad BH3-derived peptide (1 nM end concentration) and TR-FRET detection reagents [1.67 nM anti-His-Eu cryptate and 1.67 nM streptavidin-XL665 (both from Cisbio Bioassays, Codolet, France)], were added.
The mixture was incubated in the dark for one hour at 22° C. and then overnight at 4° C. The formation of BCL-2/Bad complexes was determined by measuring the resonance energy transfer of the anti-His-Eu-cryptate antibody to the streptavidin-XL665 present in the reaction. For that purpose, the fluorescence emission at 620 nm and 665 nm after excitation at 330-350 nm was measured in a TR-FRET measuring instrument, for instance a Rubystar or a Pherastar (both from BMG Lab Technologies, Offenburg, Germany) or a Viewlux (Perkin-Elmer). The ratio of the emission at 665 nm and at 622 nm was used as indicator of the amount of BCL-2/Bad complexes present.
The resulting data (ratio) were normalized, taking 0% inhibition as the mean value of control measurements (usually 32 data points) where all reagents were included. In this case 50 nl DMSO were used instead of compounds. A 100% inhibition corresponded to the mean value of control measurements (usually 32 data points) where all reagents except BCL-2 were included. IC50 values were determined by regression analysis based on a 4 parameter equation (minimum, maximum, IC50, Hill; Y=Max+(Min−Max)/(1+(X/IC50)^Hill) using the Screener Software (Genedata).

BCL-2, sequence (P10415 1-211): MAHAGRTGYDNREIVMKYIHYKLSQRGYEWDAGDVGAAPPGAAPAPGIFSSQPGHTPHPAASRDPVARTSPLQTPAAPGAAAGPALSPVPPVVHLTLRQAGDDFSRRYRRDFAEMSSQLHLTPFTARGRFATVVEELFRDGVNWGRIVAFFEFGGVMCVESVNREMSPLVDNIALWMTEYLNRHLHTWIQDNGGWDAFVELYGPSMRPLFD

Molecule | IC50 [µM]
CCc1c2c(nn1C)CN(C)CCCCn1c(C(=O)O)c(CCCOc3cccc4c3CCC4)c3ccc(F)c-2c31 (racemic) [Example 51, (rac)-7-[3-(2,3-dihydro-1H-inden-4-yloxy)propyl]-3-ethyl-4-fluoro-2,14-dimethyl-10,11,12,13,14,15-hexahydro-2H-pyrazolo[3′,4′:8,9][1,6]diazacycloundecino[10,11,1-hi]indole-8-carboxylic acid] | > 20
CCc1nn(C)c2c1-c1c(F)ccc3c(CCCOc4ccc(F)c5ccccc45)c(C(=O)O)n(c13)CCCCOC2 (single isomer, unassigned; enantiomer 1) [Example 42, 3-ethyl-4-fluoro-7-{3-[(4-fluoronaphthalen-1-yl)oxy]propyl}-1-methyl-1,10,11,12,13,15-hexahydropyrazolo[4′,3′:9,10][1,6]oxazacycloundecino[8,7,6-hi]indole-8-carboxylic acid (enantiomer 1)] | > 20
CCc1nn(C)c2c1-c1c(F)ccc3c(CCCOc4cccc5c4CCCC5)c(C(=O)O)n(c13)CCCCOC2 (racemic) [Example 44, (rac)-12-ethyl-13-fluoro-10-methyl-1-(3-((5,6,7,8-tetrahydronaphthalen-1-yl)oxy)propyl)-4,5,6,7,9,10-hexahydropyrazolo[4′,3′:9,10][1]oxa[6]azacycloundecino[8,7,6-hi]indole-2-carboxylic acid] | > 20
Cc1nn(C)c2c1-c1c(F)ccc3c(CCCOc4ccc(F)c5ccccc45)c(C(=O)O)n(c13)CCCCOC2 (racemic) [Example 33, (rac)-13-fluoro-1-(3-((4-fluoronaphthalen-1-yl)oxy)propyl)-10,12-dimethyl-4,5,6,7,9,10-hexahydropyrazolo[4′,3′:9,10][1]oxa[6]azacycloundecino[8,7,6-hi]indole-2-carboxylic acid] | > 20
CCc1nn(C)c2c1-c1c(F)ccc3c(CCCOc4cccc5ccccc45)c(C(=O)O)n(c13)CCCCOC2 (racemic) [Example 37, (rac)-12-ethyl-13-fluoro-10-methyl-1-(3-(naphthalen-1-yloxy)propyl)-4,5,6,7,9,10-hexahydro-pyrazolo[4′,3′:9,10][1]oxa[6]azacycloundecino[8,7,6-hi]indole-2-carboxylic acid] | > 20
Cc1nn(C)c2c1-c1c(F)ccc3c(CCCOc4cccc5c4CCCC5)c(C(=O)O)n(c13)CCCCOC2 (racemic) [Example 34, (rac)-13-fluoro-10,12-dimethyl-1-(3-((5,6,7,8-tetrahydronaphthalen-1-yl)oxy)propyl)-4,5,6,7,9,10-hexahydropyrazolo[4′,3′:9,10][1]oxa[6]azacycloundecino[8,7,6-hi]indole-2-carboxylic acid] | > 20
CCc1c2c(nn1C)COCCCCn1c(C(=O)O)c(CCCOc3cccc4cc(F)ccc34)c3ccc(F)c-2c31 (single isomer, unassigned; enantiomer 1) [Example 24, 3-ethyl-4-fluoro-7-{3-[(6-fluoronaphthalen-1-yl)oxy]propyl}-2-methyl-2,10,11,12,13,15-hexahydropyrazolo[4′,3′:9,10][1,6]oxazacycloundecino[8,7,6-hi]indole-8-carboxylic acid (enantiomer 1)] | > 20
CCc1nn(C)c2c1-c1c(F)ccc3c(CCCOc4cc(C)c(Cl)c(C)c4)c(C(=O)O)n(c13)CCCCOC2 (racemic) [Example 46, (rac)-1-(3-(4-chloro-3,5-dimethylphenoxy)propyl)-12-ethyl-13-fluoro-10-methyl-4,5,6,7,9,10-hexahydropyrazolo[4′,3′:9,10][1]oxa[6]azacycloundecino[8,7,6-hi]indole-2-carboxylic acid] | > 20
Cc1c2c(nn1C)COCCCCn1c(C(=O)O)c(CCCOc3cccc4c3CCC4)c3ccc(F)c-2c31 (racemic) [Example 19, (rac)-1-(3-((2,3-dihydro-1H-inden-4-yl)oxy)propyl)-13-fluoro-11,12-dimethyl-4,5,6,7,9,11-hexahydropyrazolo[4′,3′:9,10][1]oxa[6]azacycloundecino[8,7,6-hi]indole-2-carboxylic acid] | > 20
CCc1c2c(nn1C)CN(C)CCCCn1c(C(=O)O)c(CCCOc3cccc4ccccc34)c3ccc(F)c-2c31 (racemic) [Example 54, (rac)-3-ethyl-4-fluoro-2,14-dimethyl-7-[3-(1-naphthyloxy)propyl]-10,11,12,13,14,15-hexahydro-2H-pyrazolo[3′,4′:8,9][1,6]diazacycloundecino[10,11,1-hi]indole-8-carboxylic acid] | > 20

Other lines, results leading:

IC50 [µM] | Molecule
> 20 | Cc1nn(C)c2c1-c1c(F)ccc3c(CCCOc4cccc5c4CCC5)c(C(=O)O)n(c13)CCCCOC2 (racemic) [Example 35, (rac)-1-(3-((2,3-dihydro-1H-inden-4-yl)oxy)propyl)-13-fluoro-10,12-dimethyl-4,5,6,7,9,10-hexahydropyrazolo[4′,3′:9,10][1]oxa[6]azacycloundecino[8,7,6-hi]indole-2-carboxylic acid]
> 20 | Cc1cc(OCCCc2c(C(=O)O)n3c4c(c(F)ccc24)-c2c(C)nn(C)c2COCCCC3)cc(C)c1Cl (racemic) [Example 36, (rac)-1-(3-(4-chloro-3,5-dimethylphenoxy)propyl)-13-fluoro-10,12-dimethyl-4,5,6,7,9,10-hexahydropyrazolo[4′,3′:9,10][1]oxa[6]azacycloundecino[8,7,6-hi]indole-2-carboxylic acid]
> 20 | Cc1c2c(nn1C)COCCCCn1c(C(=O)O)c(CCCOc3cccc4c3CCCC4)c3ccc(F)c-2c31 (racemic) [Example 18, (rac)-13-fluoro-11,12-dimethyl-1-(3-((5,6,7,8-tetrahydronaphthalen-1-yl)oxy)propyl)-4,5,6,7,9,11-hexahydropyrazolo[4′,3′:9,10][1]oxa[6]azacycloundecino[8,7,6-hi]indole-2-carboxylic acid]
> 20 | (rac)-1-(3-((2,3-dihydro-1H-inden-4-yl)oxy)propyl)-12-ethyl-13-fluoro-11-methyl-4,5,6,7,9,11-hexahydropyrazolo[4′,3′:9,10][1]oxa[6]azacycloundecino[8,7,6-hi]indole-2-carboxylic acid [Example 30]
> 20 | CCc1nn(C)c2c1-c1c(F)ccc3c(CCCOc4cccc5ccccc45)c(C(=O)O)n(c13)C/C=C\COC2 (racemic) [Example 11, (rac)-(Z)-12-ethyl-13-fluoro-10-methyl-1-(3-(naphthalen-1-yloxy)propyl)-4,7,9,10-tetrahydro-pyrazolo[4′,3′:9,10][1]oxa[6]azacycloundecino[8,7,6-hi]indole-2-carboxylic acid]
> 20 | Cc1nn(C)c2c1-c1c(F)ccc3c(CCCOc4cccc5ccccc45)c(C(=O)O)n(c13)CCCCOC2 (racemic) [Example 10, (rac)-13-fluoro-10,12-dimethyl-1-(3-(naphthalen-1-yloxy)propyl)-4,5,6,7,9,10-hexahydro-pyrazolo[4′,3′:9,10][1]oxa[6]azacycloundecino[8,7,6-hi]indole-2-carboxylic acid]
> 20 | CCc1c2c(nn1C)CN(C)CCCCn1c(C(=O)O)c(CCCOc3cccc4c3CCCC4)c3ccc(F)c-2c31 (racemic) [Example 52, (rac)-3-ethyl-4-fluoro-2,14-dimethyl-7-[3-(5,6,7,8-tetrahydronaphthalen-1-yloxy)propyl]-10,11,12,13,14,15-hexahydro-2H-pyrazolo[3′,4′:8,9][1,6]diazacycloundecino[10,11,1-hi]indole-8-carboxylic acid]
